target: T1, Muscarinic acetylcholine receptor M5 (Homo sapiens) (UniProt P08912); test: Agonist activity at human muscarinic M5 receptor expressed in BHK-21 cells assessed as increase of acetylcholine-induced calcium flux at 10 uM by FLIPR assay relative to acetylcholine; format: functional, cell-based
T1 sequence (whole entry): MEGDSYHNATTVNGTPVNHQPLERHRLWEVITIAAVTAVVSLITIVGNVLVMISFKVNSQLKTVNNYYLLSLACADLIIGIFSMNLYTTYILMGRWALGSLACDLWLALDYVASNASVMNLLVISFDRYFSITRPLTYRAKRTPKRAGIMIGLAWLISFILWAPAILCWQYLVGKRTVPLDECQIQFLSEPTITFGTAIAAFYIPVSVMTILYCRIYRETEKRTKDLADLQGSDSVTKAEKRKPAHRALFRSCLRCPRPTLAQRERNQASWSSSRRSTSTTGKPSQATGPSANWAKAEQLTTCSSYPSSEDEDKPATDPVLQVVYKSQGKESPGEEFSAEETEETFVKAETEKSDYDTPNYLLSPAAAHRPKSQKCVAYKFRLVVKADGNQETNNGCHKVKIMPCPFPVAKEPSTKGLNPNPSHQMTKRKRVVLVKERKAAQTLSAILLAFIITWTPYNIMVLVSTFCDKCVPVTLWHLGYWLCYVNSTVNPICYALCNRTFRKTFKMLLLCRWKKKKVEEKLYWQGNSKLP

| Compound | Emax [%] |
| --- | --- |
| COc1cccc(CC(=O)NC2CCN(CCCN3C(=O)COc4ccccc43)CC2)c1 | 6 |
| Cc1ccccc1CN1CCC(N2CCC(n3c(=O)[nH]c4ccccc43)CC2)CC1 | 5 |

target: T2, Muscarinic acetylcholine receptor M1 (Homo sapiens, UniProt P11229); test: not given
T2 sequence (P11229 whole entry): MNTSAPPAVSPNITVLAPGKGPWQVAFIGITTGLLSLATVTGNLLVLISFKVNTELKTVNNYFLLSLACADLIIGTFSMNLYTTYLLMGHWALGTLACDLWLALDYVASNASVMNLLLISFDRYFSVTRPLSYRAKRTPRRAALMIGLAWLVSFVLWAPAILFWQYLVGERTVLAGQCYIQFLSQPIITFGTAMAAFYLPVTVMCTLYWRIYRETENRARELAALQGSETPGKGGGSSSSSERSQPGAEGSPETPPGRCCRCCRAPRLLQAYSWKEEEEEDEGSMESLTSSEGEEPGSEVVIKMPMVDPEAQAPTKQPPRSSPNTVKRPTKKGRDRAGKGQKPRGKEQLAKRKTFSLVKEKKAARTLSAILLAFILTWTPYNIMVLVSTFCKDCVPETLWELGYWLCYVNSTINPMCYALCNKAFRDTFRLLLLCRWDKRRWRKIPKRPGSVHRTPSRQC

| Compound | EC50 [nM] |
| --- | --- |
| CC(=O)NC1CCN(CCCN2C(=O)COc3ccccc32)CC1 | 180 |
| CN(C(=O)Cc1ccccc1)C1CCN(CCCN2C(=O)COc3ccccc32)CC1 | 910 |
| O=C(NC1CCN(CCCN2C(=O)COc3ccccc32)CC1)C1CCCC1 | 350 |

Other lines, results leading:

| EC50 [nM] | Compound |
| --- | --- |
| 130 | COc1cccc(CC(=O)NC2CCN(CCCN3C(=O)COc4ccccc43)CC2)c1 |
| 290 | O=C(Cc1ccccc1)NC1CCN(CCCN2C(=O)CCc3cccc(F)c32)CC1 |
| 20 | CCC(=O)NC1CCN(CCCN2C(=O)CCc3ccc(F)cc32)CC1 |
| 15 | O=C(Cc1ccccc1)NC1CCN(CCCN2C(=O)CCc3cc(F)c(F)cc32)CC1 |

target: T3, Muscarinic acetylcholine receptor M4 (Homo sapiens) (UniProt P08173); test: Agonist activity at human muscarinic M4 receptor expressed in BHK-21 cells coexpressing Galpha16 subunit assessed as increase of acetylcholine-induced calcium flux at 10 uM by FLIPR assay relative to acetylcholine; format: functional, cell-based
T3 sequence (whole entry): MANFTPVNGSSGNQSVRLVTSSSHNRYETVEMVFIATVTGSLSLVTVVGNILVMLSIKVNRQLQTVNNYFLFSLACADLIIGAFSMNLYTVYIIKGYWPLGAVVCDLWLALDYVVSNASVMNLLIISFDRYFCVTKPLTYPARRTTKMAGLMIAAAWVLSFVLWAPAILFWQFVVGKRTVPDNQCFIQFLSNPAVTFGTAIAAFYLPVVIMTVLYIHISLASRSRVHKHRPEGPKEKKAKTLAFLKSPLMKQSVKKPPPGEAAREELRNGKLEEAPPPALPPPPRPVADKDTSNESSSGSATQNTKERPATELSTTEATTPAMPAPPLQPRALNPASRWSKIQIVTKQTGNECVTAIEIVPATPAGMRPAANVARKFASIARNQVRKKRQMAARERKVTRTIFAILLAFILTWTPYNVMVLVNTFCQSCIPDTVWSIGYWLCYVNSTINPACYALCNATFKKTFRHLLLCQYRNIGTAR

| Compound | Emax [%] |
| --- | --- |
| COc1cccc(CC(=O)NC2CCN(CCCN3C(=O)COc4ccccc43)CC2)c1 | 3 |
| Cc1ccccc1CN1CCC(N2CCC(n3c(=O)[nH]c4ccccc43)CC2)CC1 | 38 |

target: T4, Muscarinic acetylcholine receptor M1 (Homo sapiens) (UniProt P11229); test: Agonist activity at human muscarinic M1 receptor expressed in CHO-K1 cells assessed as increase of acetylcholine-induced calcium flux by FLIPR assay relative to acetylcholine; format: functional, cell-based
T4 sequence (whole entry): T2 sequence (P11229 whole entry)

| Compound | Emax [%] |
| --- | --- |
| CC(=O)NC1CCN(CCCN2C(=O)COc3ccccc32)CC1 | 74 |
| CN(C(=O)Cc1ccccc1)C1CCN(CCCN2C(=O)COc3ccccc32)CC1 | 67 |
| O=C(NC1CCN(CCCN2C(=O)COc3ccccc32)CC1)C1CCCC1 | 41 |
| Cc1ccccc1CN1CCC(N2CCC(n3c(=O)[nH]c4ccccc43)CC2)CC1 | 86 |

Further lines, results first:

| Emax [%] | Compound |
| --- | --- |
| 86 | COc1cccc(CC(=O)NC2CCN(CCCN3C(=O)COc4ccccc43)CC2)c1 |
| 75 | O=C(Cc1ccccc1)NC1CCN(CCCN2C(=O)CCc3cccc(F)c32)CC1 |
| 83 | CCC(=O)NC1CCN(CCCN2C(=O)CCc3ccc(F)cc32)CC1 |
| 89 | O=C(Cc1ccccc1)NC1CCN(CCCN2C(=O)CCc3cc(F)c(F)cc32)CC1 |

target: 5-hydroxytryptamine receptor 2C (Homo sapiens, UniProt P28335); test: Binding affinity to human 5HT2C receptor agonist site by radioligand displacement assay
Sequence (P28335 whole entry): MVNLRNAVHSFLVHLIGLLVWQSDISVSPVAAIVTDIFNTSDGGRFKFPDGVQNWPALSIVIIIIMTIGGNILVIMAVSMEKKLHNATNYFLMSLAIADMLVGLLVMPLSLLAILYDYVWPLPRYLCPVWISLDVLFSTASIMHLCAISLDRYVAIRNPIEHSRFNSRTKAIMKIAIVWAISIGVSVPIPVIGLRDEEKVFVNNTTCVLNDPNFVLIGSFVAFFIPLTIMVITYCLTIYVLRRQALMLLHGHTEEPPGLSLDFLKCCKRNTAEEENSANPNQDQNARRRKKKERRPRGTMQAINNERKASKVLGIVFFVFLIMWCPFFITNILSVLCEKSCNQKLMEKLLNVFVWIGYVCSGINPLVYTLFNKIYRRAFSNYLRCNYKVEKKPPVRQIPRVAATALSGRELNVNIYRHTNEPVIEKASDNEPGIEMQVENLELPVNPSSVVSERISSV

| Compound | Ki [nM] |
| --- | --- |
| Cc1ccccc1CN1CCC(N2CCC(n3c(=O)[nH]c4ccccc43)CC2)CC1 | 85 |

target: Muscarinic acetylcholine receptor M3 (Homo sapiens, UniProt P20309); test: Agonist activity at human muscarinic M3 receptor expressed in BHK-21 cells assessed as increase of acetylcholine-induced calcium flux at 10 uM by FLIPR assay relative to acetylcholine; format: functional, cell-based
Sequence (P20309 whole entry, looked up): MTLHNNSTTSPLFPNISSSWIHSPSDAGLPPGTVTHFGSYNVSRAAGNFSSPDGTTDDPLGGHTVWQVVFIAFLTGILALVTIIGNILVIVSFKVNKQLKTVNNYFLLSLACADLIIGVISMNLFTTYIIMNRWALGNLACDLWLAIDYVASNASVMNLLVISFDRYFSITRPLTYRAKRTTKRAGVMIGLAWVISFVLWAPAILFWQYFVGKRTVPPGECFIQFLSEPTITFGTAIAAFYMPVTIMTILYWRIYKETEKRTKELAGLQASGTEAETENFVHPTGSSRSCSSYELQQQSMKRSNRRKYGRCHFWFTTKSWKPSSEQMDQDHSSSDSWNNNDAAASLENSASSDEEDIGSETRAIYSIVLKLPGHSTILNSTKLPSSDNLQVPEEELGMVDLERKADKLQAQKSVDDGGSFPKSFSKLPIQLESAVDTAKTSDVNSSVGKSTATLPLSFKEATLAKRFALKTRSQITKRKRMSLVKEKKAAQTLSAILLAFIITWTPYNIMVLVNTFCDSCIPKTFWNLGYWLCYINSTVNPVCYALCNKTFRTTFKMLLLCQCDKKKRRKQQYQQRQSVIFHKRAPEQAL

| Compound | Emax [%] |
| --- | --- |
| COc1cccc(CC(=O)NC2CCN(CCCN3C(=O)COc4ccccc43)CC2)c1 | 0 |
| Cc1ccccc1CN1CCC(N2CCC(n3c(=O)[nH]c4ccccc43)CC2)CC1 | 1 |

target: Alpha-1B adrenergic receptor (Homo sapiens, UniProt P35368); test: Binding affinity to human adrenergic Alpha-1B receptor by radioligand displacement assay
Sequence (P35368 whole entry): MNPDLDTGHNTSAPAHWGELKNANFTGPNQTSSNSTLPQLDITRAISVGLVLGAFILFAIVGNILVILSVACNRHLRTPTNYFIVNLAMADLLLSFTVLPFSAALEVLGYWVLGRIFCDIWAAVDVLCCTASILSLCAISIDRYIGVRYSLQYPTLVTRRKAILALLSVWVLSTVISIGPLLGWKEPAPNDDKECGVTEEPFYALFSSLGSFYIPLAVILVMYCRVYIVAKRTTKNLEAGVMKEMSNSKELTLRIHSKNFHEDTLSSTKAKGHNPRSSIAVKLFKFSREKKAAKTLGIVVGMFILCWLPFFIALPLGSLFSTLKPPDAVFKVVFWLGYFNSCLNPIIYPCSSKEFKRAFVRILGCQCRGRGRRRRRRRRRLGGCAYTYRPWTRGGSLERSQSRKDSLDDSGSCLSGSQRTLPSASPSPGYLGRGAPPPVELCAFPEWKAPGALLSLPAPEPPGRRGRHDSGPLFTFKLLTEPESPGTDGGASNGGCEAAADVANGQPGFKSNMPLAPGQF

| Compound | Ki [nM] |
| --- | --- |
| Cc1ccccc1CN1CCC(N2CCC(n3c(=O)[nH]c4ccccc43)CC2)CC1 | 19 |

target: Alpha-1A adrenergic receptor (Homo sapiens, UniProt P35348); test: Binding affinity to human adrenergic alpha1A receptor by radioligand displacement assay
Sequence (P35348 whole entry): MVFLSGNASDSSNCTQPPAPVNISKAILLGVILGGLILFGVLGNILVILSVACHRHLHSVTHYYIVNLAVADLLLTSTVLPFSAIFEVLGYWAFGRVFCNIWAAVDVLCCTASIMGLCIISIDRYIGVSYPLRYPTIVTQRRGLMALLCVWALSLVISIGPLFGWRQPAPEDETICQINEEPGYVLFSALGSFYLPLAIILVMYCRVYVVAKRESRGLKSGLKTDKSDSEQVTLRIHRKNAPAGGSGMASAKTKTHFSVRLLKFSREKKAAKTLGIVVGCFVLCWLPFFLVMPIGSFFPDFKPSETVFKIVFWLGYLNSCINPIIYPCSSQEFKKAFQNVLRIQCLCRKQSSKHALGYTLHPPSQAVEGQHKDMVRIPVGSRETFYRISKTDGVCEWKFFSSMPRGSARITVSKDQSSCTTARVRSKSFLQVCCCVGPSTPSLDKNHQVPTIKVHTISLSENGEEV

| Compound | Ki [nM] |
| --- | --- |
| Cc1ccccc1CN1CCC(N2CCC(n3c(=O)[nH]c4ccccc43)CC2)CC1 | 11 |

target: T5, Muscarinic acetylcholine receptor M2 (Homo sapiens) (UniProt P08172); test: Agonist activity at human muscarinic M2 receptor expressed in CHO-K1 cells coexpressing Galpha16 subunit assessed as increase of acetylcholine-induced calcium flux at 10 uM by FLIPR assay relative to acetylcholine; format: functional, cell-based
T5 sequence (whole entry): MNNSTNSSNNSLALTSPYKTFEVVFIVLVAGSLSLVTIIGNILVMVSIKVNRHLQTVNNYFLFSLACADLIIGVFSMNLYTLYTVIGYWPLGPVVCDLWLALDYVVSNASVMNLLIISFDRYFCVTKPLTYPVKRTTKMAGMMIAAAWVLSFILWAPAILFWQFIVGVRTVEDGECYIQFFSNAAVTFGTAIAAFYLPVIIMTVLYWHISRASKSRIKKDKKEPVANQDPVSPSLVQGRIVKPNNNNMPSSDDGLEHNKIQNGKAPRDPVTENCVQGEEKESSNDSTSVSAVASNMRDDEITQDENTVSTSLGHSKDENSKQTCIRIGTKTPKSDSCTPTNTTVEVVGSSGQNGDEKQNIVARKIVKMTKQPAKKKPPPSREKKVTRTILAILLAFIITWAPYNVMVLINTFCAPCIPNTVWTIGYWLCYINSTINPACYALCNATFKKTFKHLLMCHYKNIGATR

| Emax [%] | Compound |
| --- | --- |
| 0 | COc1cccc(CC(=O)NC2CCN(CCCN3C(=O)COc4ccccc43)CC2)c1 |

target: T6, Muscarinic acetylcholine receptor M5 (Homo sapiens, UniProt P08912); test: biochemical
T6 sequence (P08912 whole entry): T1 sequence (whole entry)
Description: Displacement of [3H]-4-DAMP from human muscarinic M5 receptor expressed in BHK-21 cells

| Compound | Ki [nM] |
| --- | --- |
| Cc1ccccc1CN1CCC(N2CCC(n3c(=O)[nH]c4ccccc43)CC2)CC1 | 940 |

target: Alpha-1D adrenergic receptor (Homo sapiens, UniProt P25100); test: Binding affinity to human adrenergic Alpha-1D receptor by radioligand displacement assay
Sequence (P25100 whole entry): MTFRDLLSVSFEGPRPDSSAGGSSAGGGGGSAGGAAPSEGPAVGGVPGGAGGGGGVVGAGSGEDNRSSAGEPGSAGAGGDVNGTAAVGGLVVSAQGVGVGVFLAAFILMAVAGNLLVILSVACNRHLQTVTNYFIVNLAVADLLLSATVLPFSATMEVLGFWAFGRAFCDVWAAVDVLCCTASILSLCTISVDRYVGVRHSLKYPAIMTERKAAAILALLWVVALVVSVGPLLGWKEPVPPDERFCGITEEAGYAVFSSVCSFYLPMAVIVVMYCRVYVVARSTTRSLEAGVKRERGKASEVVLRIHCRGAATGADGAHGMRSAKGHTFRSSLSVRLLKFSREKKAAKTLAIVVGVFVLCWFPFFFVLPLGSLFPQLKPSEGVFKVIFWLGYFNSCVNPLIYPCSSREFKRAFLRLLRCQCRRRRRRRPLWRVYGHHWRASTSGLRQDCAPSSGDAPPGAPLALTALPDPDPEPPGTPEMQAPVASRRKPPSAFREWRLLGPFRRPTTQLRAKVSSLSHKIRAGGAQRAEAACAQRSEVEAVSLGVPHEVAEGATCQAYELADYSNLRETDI

| Compound | Ki [nM] |
| --- | --- |
| Cc1ccccc1CN1CCC(N2CCC(n3c(=O)[nH]c4ccccc43)CC2)CC1 | 290 |

target: T7, Muscarinic acetylcholine receptor M2 (Homo sapiens, UniProt P08172); test: Displacement of [3H]-AFDX-384 from human muscarinic M2 receptor expressed in CHO-K1 cells; format: cell-based
T7 sequence (P08172 whole entry): T5 sequence (whole entry)

| Compound | Ki [nM] |
| --- | --- |
| Cc1ccccc1CN1CCC(N2CCC(n3c(=O)[nH]c4ccccc43)CC2)CC1 | 320 |
